Results published in US9981909B2 (Janssen Pharmaceutica NV, priority 2008, dated 2018).
Counter-ions that a name gives are not always drawn.

Assays:
rat 5-HT7 receptor = rat 5-HT7 receptor (Rattus norvegicus (Rat), UniProt P32305); assay: r5-HT7 binding assay, competitive radioligand binding with [3H]5-CT
How it was run: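 Membranes from HEK-293 cells recombinantly expressing rat 5-HT7 were used for competitive radioligand binding with [3H]5-CT, with radioactivity read-out and Ki values derived. In the functional cAMP immunoassay, stably transfected HEK-293 cells were pre-incubated with compound for 10 minutes, challenged with 100 nM 5-CT for 20 minutes, then lysed.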

r5-HT7 receptor = r5-HT7 receptor (Rattus norvegicus (Rat), UniProt P32305); assay: HitHunter cAMP assay, antagonist testing against 100 nM 5-CT; assay type: cell-based; conditions: antagonist testing, 100 nM 5-CT challenge, HEK-293 r5-HT7; read-out: R5HT7 cAMP pKb (converted)
Sequence of r5-HT7 receptor (P32305 1-435): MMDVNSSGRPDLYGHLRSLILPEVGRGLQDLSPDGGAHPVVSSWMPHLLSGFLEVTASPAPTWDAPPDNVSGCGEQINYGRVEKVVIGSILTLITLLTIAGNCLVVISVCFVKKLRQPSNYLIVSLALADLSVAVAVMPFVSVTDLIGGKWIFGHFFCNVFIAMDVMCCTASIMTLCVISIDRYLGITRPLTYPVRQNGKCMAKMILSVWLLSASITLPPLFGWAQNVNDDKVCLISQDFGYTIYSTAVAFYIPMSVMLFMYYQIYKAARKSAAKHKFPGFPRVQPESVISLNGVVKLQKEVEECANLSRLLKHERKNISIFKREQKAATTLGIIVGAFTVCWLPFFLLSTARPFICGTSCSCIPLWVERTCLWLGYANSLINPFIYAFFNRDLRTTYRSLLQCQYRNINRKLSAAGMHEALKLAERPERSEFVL
Procedure: Receptor binding was performed using membrane fractions prepared from the HEK-293 cell line recombinantly expressing rat 5-HT7 receptors (NCBI accession NM_022938). Compound affinity for the rat 5-HT7 receptor subtype was evaluated by competitive radioligand binding assays using 5-carboxamido[^3H]tryptamine ([^3H]5-CT) (Amersham Biosciences, cat. 90000403) detection. HitHunter™ cAMP assays are in-vitro based competitive immunoassays. The assay was performed on the HEK-293 cell line stably transfected with r5-HT7 receptor. Cells were pre-incubated with test compounds for 10 minutes. For antagonist testing, the cells were then challenged with 100 nM 5-CT for 20 minutes. Cells were then lysed and cAMP measured according to manufacturers protocol (Amersham, cat. NET791250UC) or [^3H]mesulergine (Amersham, cat. TRK1041). The assay was performed on membranes prepared from HEK-293 cells stably transfected with h5-HT6. Following centrifugation, membranes were resuspended and incubated for 60 min at room temperature with 1.7 nM [^3H]LSD in the presence of increasing concentration of test compounds. Nonspecific binding was defined in the presence of 10 μM clozapine (Tocris, cat. TRK1068). Homogenized HEK-293 membranes expressing the human SERT were incubated in 50 mM Tris-HCl (pH 7.5), 120 mM NaCl, 5 mM KCl with [^3H]-citalopram (3 nM) with or without test compounds. Nonspecific binding was determined in the presence of 10 μM fluoxetine. Radioactivity readouts and Ki values were performed as previously described for r5-HT7. […] Compounds were assayed in their free form or as salts, as indicated in the Examples section above.

human SERT = human SERT (Homo sapiens (Human), UniProt P31645); assay: human SERT binding assay with [3H]-citalopram on HEK-293 membranes; conditions: read-out: hSERT binding Ki
Sequence of human SERT (P31645 whole entry): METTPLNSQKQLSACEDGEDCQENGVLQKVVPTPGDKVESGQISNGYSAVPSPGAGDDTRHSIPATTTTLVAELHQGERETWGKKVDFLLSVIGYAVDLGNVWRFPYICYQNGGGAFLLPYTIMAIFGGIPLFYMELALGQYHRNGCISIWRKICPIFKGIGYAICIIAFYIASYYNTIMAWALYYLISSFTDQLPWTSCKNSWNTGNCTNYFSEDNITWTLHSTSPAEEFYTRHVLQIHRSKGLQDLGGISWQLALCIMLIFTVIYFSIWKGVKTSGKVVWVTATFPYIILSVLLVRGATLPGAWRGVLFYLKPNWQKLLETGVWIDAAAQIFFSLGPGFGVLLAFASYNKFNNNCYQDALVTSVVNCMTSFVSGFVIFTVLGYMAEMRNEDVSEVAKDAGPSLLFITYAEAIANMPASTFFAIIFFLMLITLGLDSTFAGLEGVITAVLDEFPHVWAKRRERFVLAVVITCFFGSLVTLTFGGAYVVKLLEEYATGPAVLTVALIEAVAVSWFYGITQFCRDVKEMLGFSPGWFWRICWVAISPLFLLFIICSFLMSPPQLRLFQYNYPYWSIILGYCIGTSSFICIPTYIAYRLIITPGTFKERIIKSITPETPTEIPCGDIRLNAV

[1] = rat 5-HT7 receptor, HEK-293 membranes

Sequence of rat 5-HT7 receptor (P32305 1-435): as the sequence (P32305 1-435) above

Row | SMILES | Ki (rat 5-HT7 receptor; [1]) | Kb (r5-HT7 receptor) | Ki (human SERT) | Ki (rat 5-HT7 receptor; rat 5-HT7, HEK-293 membranes)
1 | Clc1ccc(COc2ccc(Br)cc2OC2CNC2)cc1 [Example 14, 3-[5-Bromo-2-(4-chloro-benzyloxy)-phenoxy]-azetidine trifluoroacetate] | 0.012 µM | 0.158 µM | 0.052 µM | –
2 | CC(Oc1ccc(Cl)cc1OC1CNC1)c1cccc(C(F)(F)F)c1 (racemic) [Example 105, (±)-3-[5-Chloro-2-[1-(3-trifluoromethyl-phenyl)-ethoxy]-phenoxy]-azetidine] | 0.023 µM | 0.0501 µM | 0.193 µM | –
3 | Clc1ccc(OCc2ccccc2Cl)c(OC2CNC2)c1 [Example 35, 3-[5-Chloro-2-(2-chloro-benzyloxy)-phenoxy]-azetidine trifluroacetate] | 0.023 µM | 1 µM | 0.003 µM | –
4 | Clc1ccc(COc2ccc(Cl)cc2OC2CNC2)cc1 [Example 36, 3-[5-Chloro-2-(4-chloro-benzyloxy)-phenoxy]-azetidine trifluoroacetate] | 0.015 µM | 0.794 µM | 0.036 µM | –
5 | O=C(c1ccc2ccccc2c1)c1ccc(Br)cc1OC1CNC1 [Example 287, [2-(Azetidin-3-yloxy)-4-bromo-phenyl]-naphthalen-2-yl-methanone] | – | 0.0631 µM | 0.014 µM | 0.015 µM
6 | Clc1cccc(Oc2ccc(Br)cc2OC2CNC2)c1 [Example 252, 3-[5-Bromo-2-(3-chloro-phenoxy)-phenoxy]-azetidine] | – | 0.0631 µM | 0.06 µM | 0.007 µM
7 | CC(Oc1ccc(Cl)cc1OC1CNC1)c1cccc(Cl)c1 (racemic) [Example 114, (±)-3-[5-Chloro-2-[1-(3-chloro-phenyl)-ethoxly]-phenoxy]-azetidine] | 0.014 µM | 0.0316 µM | 0.075 µM | –
8 | FC(F)(F)Oc1cccc(COc2ccc(Br)cc2OC2CNC2)c1 [Example 7, 3-[5-Bromo-2-(3-trifluoromethoxy-benzyloxy)-phenoxy]-azetidine] | 0.01 µM | 0.0631 µM | 0.023 µM | –
9 | Clc1ccc(OC2CCCc3ccccc32)c(OC2CNC2)c1 (centres unmarked) [Example 161, 3-[5-Chloro-2-(1,2,3,4-tetrahydro-naphthalen-1-yloxy)-phenoxy]-azetidine] | 0.028 µM | 0.0158 µM | 0.06 µM | –
10 | COc1ccc(COc2ccc(Br)cc2OC2CNC2)cc1Cl [Example 13, 3-[5-Bromo-2-(3-chloro-4-methoxy-benzyloxy)-phenoxy]-azetidine] | 0.004 µM | 0.00398 µM | 0.006 µM | –
11 | N#Cc1cccc(COc2ccc(Cl)cc2OC2CNC2)c1 [Example 34, 3-[2-(Azetidin-3-yloxy)-4-chloro-phenoxymethyl]-benzonitrile] | 0.029 µM | 0.0398 µM | 0.001 µM | –
12 | Clc1ccc(Oc2ccc(Br)cc2OC2CNC2)cc1 [Example 251, 3-[5-Bromo-2-(4-chloro-phenoxy)-phenoxy]-azetidine] | – | 0.158 µM | – | 0.011 µM
13 | Clc1ccc(OC2Cc3ccccc3C2)c(OC2CNC2)c1 [Example 173, 3-[5-Chloro-2-(indan-2-yloxy)-phenoxy]-azetidine] | 0.007 µM | 0.00794 µM | 0.056 µM | –
14 | Fc1ccc(COc2ccc(Br)cc2OC2CNC2)cc1Cl [Example 12, 3-[5-Bromo-2-(3-chloro-4-fluoro-benzyloxy)-phenoxy]-azetidine] | 0.011 µM | 0.00316 µM | 0.006 µM | –
15 | FC(F)(F)c1cc(COc2ccc(Cl)cc2OC2CNC2)ccc1Cl [Example 49, 3-[5-Chloro-2-(4-chloro-3-trifluoromethyl-benzyloxy)-phenoxy]-azetidine] | 0.013 µM | 0.0251 µM | 0.04 µM | –
16 | ON=C(COc1ccc(Cl)cc1OC1CNC1)c1ccccc1 [Example 181, 2-[2-(Azetidin-3-yloxy)-4-chloro-phenoxy]-1-phenyl-ethanone oxime] | 0.019 µM | 0.02 µM | 0.967 µM | –
17 | Fc1ccc(COc2ccc(Cl)cc2OC2CNC2)cc1 [Example 25, 3-[5-Chloro-2-(4-fluoro-benzyloxy)-phenoxy]-azetidine hydrochloride] | 0.018 µM | 0.0398 µM | 0.019 µM | –
18 | Brc1ccc(OC2Cc3ccccc3C2)c(OC2CNC2)c1 [Example 174, 3-[5-Bromo-2-(indan-2-yloxy)-phenoxy]-azetidine] | 0.006 µM | 0.00631 µM | 0.042 µM | –

Row | SMILES | Ki (rat 5-HT7 receptor; [1]) | Kb (r5-HT7 receptor) | Ki (human SERT) | Ki (rat 5-HT7 receptor; rat 5-HT7, HEK-293 membranes)
19 | Clc1ccc2c(c1)C(Oc1ccc(Br)cc1OC1CNC1)CC2 (racemic) [Example 153, (±)-3-[5-Bromo-2-(6-chloro-indan-1-yloxy)-phenoxy]-azetidine] | 0.084 µM | 0.0631 µM | – | –
20 | Fc1ccccc1COc1ccc(Br)cc1OC1CCNCC1 [Example 67, 4-[5-Bromo-2-(2-fluoro-benzyloxy)-phenoxy]-piperidine] | 0.013 µM | 0.398 µM | – | –
21 | Clc1cccc(COc2ccc(Br)cc2OC2CN(C3CCC3)C2)c1 [Example 3, 3-[5-Bromo-2-(3-chloro-benzyloxy)-phenoxy]-1-cyclobutyl-azetidine] | 0.018 µM | 0.00251 µM | 0.381 µM | –
22 | N#Cc1cccc(COc2ccc(Br)cc2OC2CNC2)c1 [Example 9, 3-[2-(Azetidin-3-yloxy)-4-bromo-phenoxymethyl]-benzonitrile] | 0.011 µM | 0.02 µM | 0.002 µM | –
23 | CCN1CC(Oc2cc(Br)ccc2OCc2cccc(Cl)c2)C1 [Example 6, 3-[5-Bromo-2-(3-chloro-benzyloxy)-phenoxy]-1-ethyl-azetidine] | 0.006 µM | 0.00398 µM | 0.249 µM | –
24 | O=C(c1ccc2c(c1)OCO2)c1ccc(Br)cc1OC1CNC1 [Example 289, [2-(Azetidin-3-yloxy)-4-bromo-phenyl]-benzo[1,3]dioxol-5-yl-methanone] | – | 0.0398 µM | 0.437 µM | 0.034 µM
25 | CCCN1CC(Oc2cc(Br)ccc2OCc2cccc(Cl)c2)C1 [Example 4, 3-[5-Bromo-2-(3-chloro-benzyloxy)-phenoxy]-1-propyl-azetidine] | 0.008 µM | 0.000631 µM | – | –
26 | FC(F)(F)c1cccc(COc2ccc(Cl)cc2OC2CNC2)c1 [Example 39, 3-[5-Chloro-2-(3-trifluoromethyl-benzyloxy)-phenoxy]-azetidine] | 0.007 µM | 0.00316 µM | 0.004 µM | –
27 | Brc1ccc(OC2CCc3ccccc32)c(OC2CNC2)c1 (racemic) [Example 151, (±)-3-[5-Bromo-2-(indan-1-yloxy)-phenoxy]-azetidine] | 0.04 µM | 0.0316 µM | – | –
28 | CN1CC(Oc2cc(F)ccc2OCc2cccc(Cl)c2)C1 [Example 203, 3-[2-(3-Chloro-benzyloxy)-5-fluoro-phenoxy]-1-methyl-azetidine] | 0.024 µM | 0.02 µM | 0.271 µM | –
29 | Clc1ccc(OCc2ccc(Cl)c(Cl)c2)c(OC2CNC2)c1 [Example 50, 3-[5-Chloro-2-(3,4-dichloro-benzyloxy)-phenoxy]-azetidine] | 0.01 µM | 0.0316 µM | 0.005 µM | –
30 | FC(F)(F)c1ccc2c(c1)C(Oc1ccc(Br)cc1OC1CNC1)CC2 (racemic) [Example 157, (±)-3-[5-Bromo-2-(6-trifluoromethyl-indan-1-yloxy)-phenoxy]-azetidine] | 0.01 µM | 0.00501 µM | 0.181 µM | –
31 | Fc1ccc2c(c1)CCC2Oc1ccc(Br)cc1OC1CNC1 (racemic) [Example 154, (±)-3-[5-Bromo-2-(5-fluoro-indan-1-yloxy)-phenoxy]-azetidine] | 0.018 µM | 0.02 µM | 0.013 µM | –
32 | CCN1CC(Oc2cc(F)ccc2OCc2cccc(Cl)c2)C1 [Example 207, 3-[2-(3-Chloro-benzyloxy)-5-fluoro-phenoxy]-1-ethyl-azetidine] | 0.02 µM | 0.0158 µM | – | –
33 | Clc1cccc(Oc2ccc(Cl)cc2OC2CNC2)c1 [Example 257, 3-[5-Chloro-2-(3-chloro-phenoxy)-phenoxy]-azetidine maleate] | – | 0.501 µM | – | 0.021 µM
34 | FC(F)(F)Oc1cccc(Oc2ccc(Br)cc2OC2CNC2)c1 [Example 253, 3-[5-Bromo-2-(3-trifluoromethoxy-phenoxy)-phenoxy]-azetidine] | – | 0.501 µM | – | 0.018 µM
35 | CN1CCC(Oc2cc(Br)ccc2OCc2cccc(Cl)c2)CC1 [Example 66, 4-[5-Bromo-2-(3-chloro-benzyloxy)-phenoxy]-1-methyl-piperidine] | 0.01 µM | 0.0501 µM | – | –
36 | O=C(c1cccc(Cl)c1)c1ccc(Br)cc1OC1CNC1 [Example 282, [2-(Azetidin-3-yloxy)-4-bromo-phenyl]-(3-chloro-phenyl)-methanone] | – | 0.2 µM | – | 0.039 µM
